The record followed here is patent US8865705B2, “Benzimidazole respiratory syncytial virus inhibitors” (Janssen R&D Ireland, priority 2010, dated 2014).

One series relates to rgRSV224 virus. In words: microbe, parasite or virus in culture. Type of series: cell-based, respiratory syncytial virus (RSV). The note with it: read-out: WT activity EC50. As to the method: Black 96-well clear-bottom microtiter plates (Corning, Amsterdam, The Netherlands) were filled in duplicate using a customized robot system with serial 4-fold dilutions of compound in a final volume of 50 μl culture medium [RPMI medium without phenol red, 10% FBS, 0.04% gentamycin (50 mg/mL) and 0.5% DMSO]. Then, 100 μl of a HeLa cell suspension (5×10^4 cells/mL) in culture medium was added to each well followed by the addition of 50 μl rgRSV224 (MOI=0.02) virus in culture medium using a multidrop dispenser (Thermo Scientific, Erembodegem, Belgium). rgRSV224 virus is an engineered virus that includes an additional GFP gene (Hallak et al, 2000) and was in-licensed from the NIH (Bethesda, Md., USA). Medium, virus- and mock-infected controls were included in each test. Cells were incubated at 37° C. in a 5% CO2 atmosphere. Three days post-virus exposure, viral replication was quantified by measuring GFP expression in the cells by a MSM laser microscope (Tibotec, Beerse, Belgium). […] In parallel, compounds were incubated for three days in a set of white 96-well microtitier plates (Corning) and the cytotoxicity of compounds in HeLa cells was determined by measuring the ATP content of the cells using the ATPlite kit (PerkinElmer, Zaventem, Belgium) according to the manufacturer's instructions.

The nature of series [1]: Cytotoxicity in HeLa cells by ATP content (ATPlite kit). Type of series: cell-based. The note with it: human; Table 1; HeLa cells, three days, ATP content; read-out: Tox CC50. The method, then:
(§1) Black 96-well clear-bottom microtiter plates (Corning, Amsterdam, The Netherlands) were filled in duplicate using a customized robot system with serial 4-fold dilutions of compound in a final volume of 50 μl culture medium [RPMI medium without phenol red, 10% FBS, 0.04% gentamycin (50 mg/mL) and 0.5% DMSO]. Then, 100 μl of a HeLa cell suspension (5×10^4 cells/mL) in culture medium was added to each well followed by the addition of 50 μl rgRSV224 (MOI=0.02) virus in culture medium using a multidrop dispenser (Thermo Scientific, Erembodegem, Belgium). rgRSV224 virus is an engineered virus that includes an additional GFP gene (Hallak et al, 2000) and was in-licensed from the NIH (Bethesda, Md., USA). Medium, virus- and mock-infected controls were included in each test. Cells were incubated at 37° C. in a 5% CO2 atmosphere. Three days post-virus exposure, viral replication was quantified by measuring GFP expression in the cells by a MSM laser microscope (Tibotec, Beerse, Belgium). The EC50 was defined as the 50% inhibitory concentration for GFP expression. In parallel, compounds were incubated for three days in a set of white 96-well microtitier plates (Corning) and the cytotoxicity of compounds in HeLa cells was determined by measuring the ATP content of the cells using the ATPlite kit (PerkinElmer, Zaventem, Belgium) according to the manufacturer's instructions. The CC50 was defined as the 50% concentration for cytotoxicity.
(ATP-based viability assays read luminescence as a measure of living cells.)

A further series relates to HeLa cells. Described as above. Type of series: cell-based. The method, then: as §1
[2] abbreviates: Table 1, rgRSV224 in HeLa cells, GFP expression three days post-virus exposure.
Setting [3] is: Table 1, HeLa cells, three days, ATP content, read-out: Tox CC50.

The EC50 is the concentration that produces a half-maximal response. In general, CC50 refers to the concentration at which the toxic effect on the cells reaches its halfway point.

Where two headings read alike, the source gives them in different places.

On to `CS(=O)(=O)CCCn1c(Cn2c(=O)n(C3CC3)c3ccncc32)nc2cc(Br)ccc21` [P2, 3-({5-Bromo-1-[3-(methylsulfonyl)propyl]-1H-benzimidazol-2-yl}methyl)-1-cyclopropyl-1,3-dihydro-2H-imidazo[4,5-c]pyridin-2-one], for which the concentration for a half-maximal effect (EC50) in the series with rgRSV224 virus (human respiratory syncytial virus, HeLa, 72 h) came out at 0.034 nM. Besides, in series [1], the half-maximal cytotoxic concentration (CC50) at 3 days is greater than 9840 nM.

As to `O=c1n(Cc2nc3cc(Br)ccc3n2CCCCF)c2cc(F)ccc2n1C1CC1` [P23], in the series on rgRSV224 virus (setting [2]), the EC50 is less than 1.6 nM. For the same compound, in the series on HeLa cells (setting [3]), the CC50 is greater than 9840 nM.

`CS(=O)(=O)CCCn1c(Cn2c(=O)n(C3CC3)c3ccccc32)nc2cc(Cl)ccc21` [P24]: in the series on rgRSV224 virus (setting [2]), the EC50 is less than 0.15 nM. For the same compound, in the series on HeLa cells, the CC50 was greater than 9840 nM.

On to `O=c1n(Cc2nc3cc(Cl)ccc3n2CCCCF)c2ccccc2n1C1CC1` [P25], for which the EC50 in the series with rgRSV224 virus (setting [2]) was less than 0.15 nM. For the same compound, the CC50 with HeLa cells (setting [3]) was greater than 9840 nM.

On to `N#CCCCn1c(Cn2c(=O)n(C3CC3)c3ccncc32)nc2cc(Cl)ccc21` [P26], for which the EC50 in the series with rgRSV224 virus (setting [2]) was less than 0.15 nM. Further, the CC50 in the series with HeLa cells (setting [3]) was greater than 9840 nM.

As to `N#CCCCn1c(Cn2c(=O)n(C3CC3)c3ccncc32)nc2cc(Br)ccc21` [P27], the EC50 with rgRSV224 virus (setting [2]) is less than 0.15 nM. Moreover, in the series with HeLa cells (setting [3]), the CC50 is greater than 9840 nM.
